# Source: EP4417602A1, “SUBSTITUTED PYRAZOLE CARBOXAMIDES, SALTS THEREOF AND THEIR USE AS HERBICIDALLY ACTIVE SUBSTANCES” (Bayer AG, priority 2023, dated 2024)
# Test system: ECHCG
# Assay: A. Herbicidal pre-emergence action on harmful plants (Tables A)
# Assay type: in vivo, Echinochloa crus-galli
# Settings: application rate 80 g/ha; visual grading after ca. 3 weeks vs untreated controls; 100% = plants have died off, 0% = as control plants
# Description: (§1) Seeds of mono- and dicotyledonous weed plants were sown in plastic pots (double sowings with one species of mono- and one species of dicotyledonous weed plants per pot), in sandy loam, and covered with soil. The compounds according to the invention, formulated in the form of wettable powders (WP) or as emulsifiable concentrates (EC), were applied to the surface of the covering soil as aqueous suspension or emulsion, with the addition of 0.5% of an additive, at an application rate of 6001 of water per hectare (converted). Following treatment, the pots were placed in a greenhouse and kept under optimum growth conditions for the test plants. The visual grading of the damage to the test plants was carried out after ca. 3 weeks in comparison to untreated controls (herbicidal effect in percent (%): 100% effect = plants have died off, 0% effect = as control plants). Tables A1 to A12, below, show the effects of selected compounds of the general formula (I) according to table 1 on various harmful plants and an application rate corresponding to 1280 g/ha or below obtained by the experimental procedure mentioned above. Table A1: pre-emergence activity at 1280g/ha against ABUTH in %
row,SMILES,pre-emergence activity against ECHCG
1,"COCc1c(C(=O)N2CCCC2Cc2c(F)cccc2F)cnn1C (single isomer, unassigned) [Example I-126]",90%
2,"COCc1c(C(=O)N2CCCC2Cc2cccc(F)c2F)cnn1C (single isomer, unassigned) [Example I-137]",90%

# Same assay, conditions: application rate 320 g/ha; visual grading after ca. 3 weeks vs untreated controls; 100% = plants have died off, 0% = as control plants
row,SMILES,pre-emergence activity against ECHCG
1,CCn1cc(C(=O)N2CCCC2Cc2ccccc2F)c(COC)n1 (racemic) [Example I-027],90%
2,COCCn1cc(C(=O)N2CCCC2Cc2ccccc2F)c(COC)n1 (racemic) [Example I-032],90%
3,"COCc1c(C(=O)N2CCCC2Cc2c(F)cccc2F)cnn1C (single isomer, unassigned) [Example I-126]",90%
4,"COCc1c(C(=O)N2CCCC2Cc2cccc(F)c2F)cnn1C (single isomer, unassigned) [Example I-137]",90%

# Same assay, conditions: application rate 1280 g/ha; visual grading after ca. 3 weeks vs untreated controls; 100% = plants have died off, 0% = as control plants
row,SMILES,pre-emergence activity against ECHCG
1,CCn1cc(C(=O)N2CCCC2Cc2ccccc2F)c(COC)n1 (racemic) [Example I-027],90%
2,COCCn1cc(C(=O)N2CCCC2Cc2ccccc2F)c(COC)n1 (racemic) [Example I-032],90%
3,"COCc1c(C(=O)N2CCCC2Cc2c(F)cccc2F)cnn1C (single isomer, unassigned) [Example I-126]",90%
4,"COCc1c(C(=O)N2CCCC2Cc2cccc(F)c2F)cnn1C (single isomer, unassigned) [Example I-137]",100%

# Test system: LOLRI
# Assay: as above
# Assay type: in vivo, Lolium rigidum
# Settings: application rate 320 g/ha; visual grading after ca. 3 weeks vs untreated controls; 100% = plants have died off, 0% = as control plants
# Description: as §1
row,SMILES,pre-emergence activity against LOLRI
1,"COCc1c(C(=O)N2CCCC2Cc2c(F)cccc2F)cnn1C (single isomer, unassigned) [Example I-126]",90%
2,"COCc1c(C(=O)N2CCCC2Cc2cccc(F)c2F)cnn1C (single isomer, unassigned) [Example I-137]",90%

# Same assay, conditions: application rate 1280 g/ha; visual grading after ca. 3 weeks vs untreated controls; 100% = plants have died off, 0% = as control plants
row,SMILES,pre-emergence activity against LOLRI
1,CCn1cc(C(=O)N2CCCC2Cc2ccccc2F)c(COC)n1 (racemic) [Example I-027],90%
2,COCCn1cc(C(=O)N2CCCC2Cc2ccccc2F)c(COC)n1 (racemic) [Example I-032],100%
3,"COCc1c(C(=O)N2CCCC2Cc2c(F)cccc2F)cnn1C (single isomer, unassigned) [Example I-126]",100%
4,"COCc1c(C(=O)N2CCCC2Cc2cccc(F)c2F)cnn1C (single isomer, unassigned) [Example I-137]",100%

# Test system: MATIN
# Assay: as above
# Assay type: in vivo, Matricaria inodora
# Settings: application rate 320 g/ha; visual grading after ca. 3 weeks vs untreated controls; 100% = plants have died off, 0% = as control plants
# Description: as §1
row,SMILES,pre-emergence activity against MATIN
1,"COCc1c(C(=O)N2CCCC2Cc2cccc(F)c2F)cnn1C (single isomer, unassigned) [Example I-137]",90%

# Same assay, conditions: application rate 1280 g/ha; visual grading after ca. 3 weeks vs untreated controls; 100% = plants have died off, 0% = as control plants
row,SMILES,pre-emergence activity against MATIN
1,"COCc1c(C(=O)N2CCCC2Cc2c(F)cccc2F)cnn1C (single isomer, unassigned) [Example I-126]",90%
2,"COCc1c(C(=O)N2CCCC2Cc2cccc(F)c2F)cnn1C (single isomer, unassigned) [Example I-137]",90%

# Test system: SETVI
# Assay: as above
# Assay type: in vivo, Setaria viridis
# Settings: application rate 80 g/ha; visual grading after ca. 3 weeks vs untreated controls; 100% = plants have died off, 0% = as control plants
# Description: as §1
row,SMILES,pre-emergence activity against SETVI
1,"COCc1c(C(=O)N2CCCC2Cc2c(F)cccc2F)cnn1C (single isomer, unassigned) [Example I-126]",90%

# Same assay, conditions: application rate 320 g/ha; visual grading after ca. 3 weeks vs untreated controls; 100% = plants have died off, 0% = as control plants
row,SMILES,pre-emergence activity against SETVI
1,CCn1cc(C(=O)N2CCCC2Cc2ccccc2F)c(COC)n1 (racemic) [Example I-027],100%
2,COCCn1cc(C(=O)N2CCCC2Cc2ccccc2F)c(COC)n1 (racemic) [Example I-032],90%
3,"COCc1c(C(=O)N2CCCC2Cc2c(F)cccc2F)cnn1C (single isomer, unassigned) [Example I-126]",90%

# Same assay, conditions: application rate 1280 g/ha; visual grading after ca. 3 weeks vs untreated controls; 100% = plants have died off, 0% = as control plants
row,SMILES,pre-emergence activity against SETVI
1,CCn1cc(C(=O)N2CCCC2Cc2ccccc2F)c(COC)n1 (racemic) [Example I-027],100%
2,COCCn1cc(C(=O)N2CCCC2Cc2ccccc2F)c(COC)n1 (racemic) [Example I-032],90%
3,"COCc1c(C(=O)N2CCCC2Cc2c(F)cccc2F)cnn1C (single isomer, unassigned) [Example I-126]",100%
4,"COCc1c(C(=O)N2CCCC2Cc2cccc(F)c2F)cnn1C (single isomer, unassigned) [Example I-137]",100%

# Test system: STEME
# Assay: as above
# Assay type: in vivo, Stellaria media
# Settings: application rate 320 g/ha; visual grading after ca. 3 weeks vs untreated controls; 100% = plants have died off, 0% = as control plants
# Description: as §1
row,SMILES,pre-emergence activity against STEME
1,"COCc1c(C(=O)N2CCCC2Cc2c(F)cccc2F)cnn1C (single isomer, unassigned) [Example I-126]",90%

# Same assay, conditions: application rate 1280 g/ha; visual grading after ca. 3 weeks vs untreated controls; 100% = plants have died off, 0% = as control plants
row,SMILES,pre-emergence activity against STEME
1,CCn1cc(C(=O)N2CCCC2Cc2ccccc2F)c(COC)n1 (racemic) [Example I-027],90%
2,"COCc1c(C(=O)N2CCCC2Cc2c(F)cccc2F)cnn1C (single isomer, unassigned) [Example I-126]",90%

# Test system: POAAN
# Assay: as above
# Assay type: in vivo, Poa annua
# Settings: application rate 80 g/ha; Table A7c
# Description: as §1
row,SMILES,pre-emergence activity against POAAN
1,"COCc1c(C(=O)N2CCCC2Cc2c(F)cccc2F)cnn1C (single isomer, unassigned) [Example I-126]",90%
2,"COCc1c(C(=O)N2CCCC2Cc2cccc(F)c2F)cnn1C (single isomer, unassigned) [Example I-137]",100%

# Same assay, conditions: application rate 320 g/ha; Table A7b
row,SMILES,pre-emergence activity against POAAN
1,COCCn1cc(C(=O)N2CCCC2Cc2ccccc2F)c(COC)n1 (racemic) [Example I-032],100%
2,"COCc1c(C(=O)N2CCCC2Cc2c(F)cccc2F)cnn1C (single isomer, unassigned) [Example I-126]",90%
3,"COCc1c(C(=O)N2CCCC2Cc2cccc(F)c2F)cnn1C (single isomer, unassigned) [Example I-137]",100%

# Same assay, conditions: application rate 1280 g/ha; visual grading after ca. 3 weeks vs untreated controls; 100% = plants have died off, 0% = as control plants
row,SMILES,pre-emergence activity against POAAN
1,COCCn1cc(C(=O)N2CCCC2Cc2ccccc2F)c(COC)n1 (racemic) [Example I-032],100%
2,"COCc1c(C(=O)N2CCCC2Cc2c(F)cccc2F)cnn1C (single isomer, unassigned) [Example I-126]",100%
3,"COCc1c(C(=O)N2CCCC2Cc2cccc(F)c2F)cnn1C (single isomer, unassigned) [Example I-137]",100%

# Test system: ALOMY
# Assay: as above
# Assay type: in vivo, Alopecurus myosuroides
# Settings: application rate 320 g/ha; Table A9b
# Description: as §1
row,SMILES,pre-emergence activity against ALOMY
1,"COCc1c(C(=O)N2CCCC2Cc2c(F)cccc2F)cnn1C (single isomer, unassigned) [Example I-126]",90%

# Same assay, conditions: application rate 1280 g/ha; Table A9a
row,SMILES,pre-emergence activity against ALOMY
1,CCn1cc(C(=O)N2CCCC2Cc2ccccc2F)c(COC)n1 (racemic) [Example I-027],90%
2,"COCc1c(C(=O)N2CCCC2Cc2c(F)cccc2F)cnn1C (single isomer, unassigned) [Example I-126]",90%

# Test system: DIGSA
# Assay: as above
# Assay type: in vivo, Digitaria sanguinalis
# Settings: application rate 80 g/ha; Table A12c
# Description: as §1
row,SMILES,pre-emergence activity against DIGSA
1,"COCc1c(C(=O)N2CCCC2Cc2c(F)cccc2F)cnn1C (single isomer, unassigned) [Example I-126]",90%
2,"COCc1c(C(=O)N2CCCC2Cc2cccc(F)c2F)cnn1C (single isomer, unassigned) [Example I-137]",100%

# Same assay, conditions: application rate 320 g/ha; Table A12b
row,SMILES,pre-emergence activity against DIGSA
1,CCn1cc(C(=O)N2CCCC2Cc2ccccc2F)c(COC)n1 (racemic) [Example I-027],90%
2,"COCc1c(C(=O)N2CCCC2Cc2c(F)cccc2F)cnn1C (single isomer, unassigned) [Example I-126]",100%
3,"COCc1c(C(=O)N2CCCC2Cc2cccc(F)c2F)cnn1C (single isomer, unassigned) [Example I-137]",100%

# Same assay, conditions: application rate 1280 g/ha; Table A12a
row,SMILES,pre-emergence activity against DIGSA
1,CCn1cc(C(=O)N2CCCC2Cc2ccccc2F)c(COC)n1 (racemic) [Example I-027],90%
2,COCCn1cc(C(=O)N2CCCC2Cc2ccccc2F)c(COC)n1 (racemic) [Example I-032],100%
3,"COCc1c(C(=O)N2CCCC2Cc2c(F)cccc2F)cnn1C (single isomer, unassigned) [Example I-126]",100%
4,"COCc1c(C(=O)N2CCCC2Cc2cccc(F)c2F)cnn1C (single isomer, unassigned) [Example I-137]",100%

# Test system: POAAN
# Assay: B. Herbicidal post-emergence action on harmful plants (Tables B)
# Assay type: in vivo, Poa annua
# Settings: application rate 80 g/ha; Table B7c
# Method: Seeds of mono- and dicotyledonous weed plants were placed in plastic pots in sandy loam soil (doubly sown with in each case one species of mono- or dicotyledonous weed plants per pot), covered with soil and cultivated in a greenhouse under controlled growth conditions. 2 to 3 weeks after sowing, the test plants were treated at the one-leaf stage. The compounds of the invention, formulated in the form of wettable powders (WP) or as emulsion concentrates (EC), were applied onto the green parts of the plants as aqueous suspension or emulsion with addition of 0.5% additive at a water application rate of 600 liters per hectare (converted). After the test plants had been kept in the greenhouse under optimum growth conditions for about 3 weeks, the activity of the preparations was rated visually in comparison to untreated controls. For example, 100% activity = the plants have died, 0% activity = like control plants. Tables B1 to B12, below, show the effects of selected compounds of the general formula (I) according to table 1 on various harmful plants and an application rate corresponding to 1280 g/ha or below obtained by the experimental procedure mentioned above. Table B1a: post-emergence activity at 1280g/ha against ABUTH in %
row,SMILES,post-emergence activity against POAAN
1,"COCc1c(C(=O)N2CCCC2Cc2c(F)cccc2F)cnn1C (single isomer, unassigned) [Example I-126]",90%

# Same assay, conditions: application rate 320 g/ha; Table B7b
row,SMILES,post-emergence activity against POAAN
1,"COCc1c(C(=O)N2CCCC2Cc2c(F)cccc2F)cnn1C (single isomer, unassigned) [Example I-126]",90%

# Same assay, conditions: application rate 1280 g/ha; Table B7a
row,SMILES,post-emergence activity against POAAN
1,"COCc1c(C(=O)N2CCCC2Cc2c(F)cccc2F)cnn1C (single isomer, unassigned) [Example I-126]",90%
2,"COCc1c(C(=O)N2CCCC2Cc2cccc(F)c2F)cnn1C (single isomer, unassigned) [Example I-137]",90%
